Reference: US20250171438A1 (Agios Pharmaceuticals, Inc., priority 2022, published 2025)

The compounds below were run against T1, human PAH with the R408W mutation (Homo sapiens, UniProt P00439, R408W) (assay: Cell Based Phenylalanine Flux Assay). Settings: A375 cells expressing human R408W PAH; 24 hrs compound incubation; 13C-Tyrosine by LC-MS; average where tested multiple times; read-out: AC50.
T1 construct: expressed in transfected cells
T1 sequence (P00439 1-452 R408W): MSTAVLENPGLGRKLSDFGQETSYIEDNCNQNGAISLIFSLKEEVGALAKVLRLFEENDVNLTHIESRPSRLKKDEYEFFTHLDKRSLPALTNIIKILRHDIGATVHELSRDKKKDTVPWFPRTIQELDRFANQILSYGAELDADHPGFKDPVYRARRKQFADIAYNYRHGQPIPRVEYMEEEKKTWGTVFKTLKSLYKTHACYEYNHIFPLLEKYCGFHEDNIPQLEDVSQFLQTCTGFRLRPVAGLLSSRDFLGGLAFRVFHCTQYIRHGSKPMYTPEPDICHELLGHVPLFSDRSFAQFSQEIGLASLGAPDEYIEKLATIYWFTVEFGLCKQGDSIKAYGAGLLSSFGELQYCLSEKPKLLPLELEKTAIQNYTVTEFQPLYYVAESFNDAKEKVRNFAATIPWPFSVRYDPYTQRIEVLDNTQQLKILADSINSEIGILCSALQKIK
Parameters: scale not given here

First: O=C(c1nccs1)N1CCc2[nH]cnc2[C@H]1c1nc2ccc(Br)cc2[nH]1 [Example 933, (S)-(4-(6-bromo-1H-benzo[d]imidazol-2-yl)-6,7-dihydro-1H-imidazo[4,5-c]pyridin-5(4H)-yl)(thiazol-2-yl)methanone]
Second: O=C(CC1CC1)N1CCc2[nH]cnc2[C@H]1c1nc2ccc(Br)cc2[nH]1 [Example 945, (S)-1-(4-(6-bromo-1H-benzo[d]imidazol-2-yl)-6,7-dihydro-1H-imidazo[4,5-c]pyridin-5(4H)-yl)-2-cyclopropylethanone]
The AC50 of the first is higher: 1000 to 5000 nM for the first, < 500 nM for the second.

`O=C(c1cnc(C(F)(F)F)o1)N1CCc2[nH]cnc2[C@H]1c1nc2c(F)cccc2s1` [Example 1401, (S)-(4-(4-fluorobenzo[d]thiazol-2-yl)-6,7-dihydro-1H-imidazo[4,5-c]pyridin-5(4H)-yl)(2-(trifluoromethyl)oxazol-5-yl)methanone] and `O=C(c1ccnn1CC(F)(F)F)N1CCc2[nH]cnc2[C@H]1c1nc2c(F)cccc2s1` [Example 1737, (S)-(4-(4-fluorobenzo[d]thiazol-2-yl)-6,7-dihydro-1H-imidazo[4,5-c]pyridin-5(4H)-yl)(1-(2,2,2-trifluoroethyl)-1H-pyrazol-5-yl)methanone] cannot be ordered by AC50: < 500 nM for the first, < 500 nM for the second.

`CNC(C)(C)c1nc(C(F)F)c(C(=O)N2CCc3[nH]cnc3[C@H]2c2nc3c(F)cccc3s2)o1` [Example 2069, (S)-(4-(difluoromethyl)-2-(2-(methylamino)propan-2-yl)oxazol-5-yl)(4-(4-fluorobenzo[d]thiazol-2-yl)-6,7-dihydro-1H-imidazo[4,5-c]pyridin-5(4H)-yl)methanone] and `O=C(c1oc(C2(O)CC2)nc1C(F)F)N1CCc2[nH]cnc2[C@H]1c1nc2c(F)cccc2s1` [Example 1995] cannot be ordered by AC50: < 500 nM for the first, < 500 nM for the second.

Going from `Cn1cc(-c2ncc(C(=O)N3CCc4[nH]cnc4[C@H]3c3nc4ccccc4s3)s2)c(C(F)(F)F)n1` [Example 1389] to `O=C(Cc1nc(C(F)(F)F)cs1)N1CCc2[nH]cnc2[C@@H]1c1nc2ccccc2s1` [Example 1034, (R)-1-(4-(benzo[d]thiazol-2-yl)-6,7-dihydro-1H-imidazo[4,5-c]pyridin-5(4H)-yl)-2-(4-(trifluoromethyl)thiazol-2-yl)ethenone], the AC50 rises from < 500 nM to > 5000 nM.

First: O=C(C1CCC1)N1CCc2[nH]cnc2[C@@H]1c1nc2ccccc2s1 [Example 1154, (R)-(4-(benzo[d]thiazol-2-yl)-6,7-dihydro-1H-imidazo[4,5-c]pyridin-5(4H)-yl)(cyclobutyl)methanone]
Second: O=C(c1cn[nH]c1Cl)N1CCc2[nH]cnc2[C@H]1c1nc2ccccc2s1 [Example 2036]
The AC50 of the first is higher: > 5000 nM for the first, < 500 nM for the second.

First: O=C(c1ccccc1)N1CCc2[nH]cnc2[C@H]1c1nc2ccccc2[nH]1 [Example 928, (S)-(4-(1H-benzo[d]imidazol-2-yl)-1,4,6,7-tetrahydro-5H-imidazo[4,5-c]pyridin-5-yl)(phenyl)methanone]
Second: O=C(c1nnc(-c2ccccc2)o1)N1CCc2[nH]cnc2[C@H]1c1nc2ccccc2s1 [Example 1417]
The AC50 of the first is higher: 500 to 1000 nM for the first, < 500 nM for the second.

First: O=C(c1cnn2ccccc12)N1CCc2[nH]cnc2[C@H]1c1nc2c(Cl)cccc2s1 [Example 1221, (S)-(4-(4-chlorobenzo[d]thiazol-2-yl)-6,7-dihydro-1H-imidazo[4,5-c]pyridin-5(4H)-yl)(pyrazolo[1,5-a]pyridin-3-yl)methanone]
Second: O=C(c1nc2ccccc2s1)N1CCc2[nH]cnc2[C@@H]1c1nc2ccccc2s1 [Example 1002, (R)-benzo[d]thiazol-2-yl(4-(benzo[d]thiazol-2-yl)-6,7-dihydro-1H-imidazo[4,5-c]pyridin-5(4H)-yl)methanone]
The AC50 of the first is lower: < 500 nM for the first, 1000 to 5000 nM for the second.

`Cc1ccc(-c2nnc(C(=O)N3CCc4[nH]cnc4[C@H]3c3nc4c(F)cccc4s3)o2)nc1` [Example 1904, (S)-(4-(4-fluorobenzo[d]thiazol-2-yl)-6,7-dihydro-1H-imidazo[4,5-c]pyridin-5(4H)-yl)(5-(5-methylpyridin-2-yl)-1,3,4-oxadiazol-2-yl)methanone] and `O=C(c1cnc(-c2c(F)cccc2F)s1)N1CCc2[nH]cnc2[C@@H]1c1nc2c(F)cccc2s1` [Example 1503, (R)-(2-(2,6-difluorophenyl)thiazol-5-yl)(4-(4-fluorobenzo[d]thiazol-2-yl)-6,7-dihydro-1H-imidazo[4,5-c]pyridin-5(4H)-yl)methanone] cannot be ordered by AC50: < 500 nM for the first, < 500 nM for the second.

Compared with `Cn1nc(Cl)nc1C(=O)N1CCc2[nH]cnc2[C@@H]1c1nc2ccccc2s1` [Example 1938, (R)-(4-(benzo[d]thiazol-2-yl)-6,7-dihydro-1H-imidazo[4,5-c]pyridin-5(4H)-yl)(3-chloro-1-methyl-1H-1,2,4-triazol-5-yl)methanone], `O=C(Cc1nccs1)N1CCc2[nH]cnc2[C@@H]1c1nc2ccccc2s1` [Example 1038, (R)-1-(4-(benzo[d]thiazol-2-yl)-6,7-dihydro-1H-imidazo[4,5-c]pyridin-5(4H)-yl)-2-(thiazol-2-yl)ethenone] is higher in AC50: 1000 to 5000 nM for the first, > 5000 nM for the second.

First: O=C(CCc1nccs1)N1CCc2[nH]cnc2[C@H]1c1nc2c(F)cccc2s1 [Example 1077, (S)-1-(4-(4-fluorobenzo[d]thiazol-2-yl)-6,7-dihydro-1H-imidazo[4,5-c]pyridin-5(4H)-yl)-3-(thiazol-2-yl)propan-1-one]
Second: CC(O)c1nc(Cl)c(C(=O)N2CCc3[nH]cnc3[C@H]2c2nc3c(F)cccc3s2)o1 (single isomer, unassigned) [Example 2079]
The AC50 of the first is higher: 1000 to 5000 nM for the first, < 500 nM for the second.

Compared with `Cc1cc(C2(C(=O)N3CCc4[nH]cnc4[C@@H]3c3nc4ccccc4s3)CC2)on1` [Example 1550, (R)-(4-(benzo[d]thiazol-2-yl)-6,7-dihydro-1H-imidazo[4,5-c]pyridin-5(4H)-yl)(1-(3-methylisoxazol-5-yl)cyclopropyl)methanone], `Cc1ncoc1C(=O)N1CC2(CC2)c2[nH]cnc2[C@@H]1c1nc2ccccc2s1` [Example 1578, (R)-(4′-(benzo[d]thiazol-2-yl)spiro[cyclopropane-1,7′-imidazo[4,5-c]pyridin]-5′(1′H,4′H,6′H)-yl)(4-methyloxazol-5-yl)methanone] is higher in AC50: 1000 to 5000 nM for the first, > 5000 nM for the second.

`O=C(c1oc(CCN2CC(F)C2)nc1C(F)(F)F)N1CCc2[nH]cnc2[C@H]1c1nc2ccccc2s1` [Example 1575] and `O=C(c1oc(NC2CC2)nc1C(F)(F)F)N1CCc2[nH]cnc2[C@H]1c1nc2c(F)cccc2s1` [Example 1595] cannot be ordered by AC50: < 500 nM for the first, < 500 nM for the second.

`O=C(c1cnn2cc(F)ccc12)N1CCc2[nH]cnc2[C@H]1c1nc2ccc(Br)cc2[nH]1` [Example 967, (S)-(4-(6-bromo-1H-benzo[d]imidazol-2-yl)-6,7-dihydro-1H-imidazo[4,5-c]pyridin-5(4H)-yl)(6-fluoropyrazolo[1,5-a]pyridin-3-yl)methanone] and `CN(C)CCn1cc(C(=O)N2CCc3[nH]cnc3[C@@H]2c2nc3c(F)cccc3s2)c(C(F)(F)F)n1` [Example 1642, (R)-(1-(2-(dimethylamino)ethyl)-3-(trifluoromethyl)-1H-pyrazol-4-yl)(4-(4-fluorobenzo[d]thiazol-2-yl)-6,7-dihydro-1H-imidazo[4,5-c]pyridin-5(4H)-yl)methanone] fall in the same range of AC50: 500 to 1000 nM for the first, 500 to 1000 nM for the second.

First: Cc1nc(C(C)(C)N(C)C)oc1C(=O)N1CCc2[nH]cnc2[C@H]1c1nc2c(F)cccc2s1 [Example 2049, (S)-(2-(2-(dimethylamino)propan-2-yl)-4-methyloxazol-5-yl)(4-(4-fluorobenzo[d]thiazol-2-yl)-6,7-dihydro-1H-imidazo[4,5-c]pyridin-5(4H)-yl)methanone]
Second: Cc1ncoc1C(=O)N1CC2(CC2)c2[nH]cnc2[C@H]1c1nc2ccccc2s1 [Example 2152, (S)-(4′-(benzo[d]thiazol-2-yl)spiro[cyclopropane-1,7′-imidazo[4,5-c]pyridin]-5′(1′H,4′H,6′H)-yl)(4-methyloxazol-5-yl)methanone]
The AC50 of the first is higher: 1000 to 5000 nM for the first, 500 to 1000 nM for the second.

Same assay, conditions: A375 cells expressing human R408W PAH; 24 hrs with compound; 13C-Tyrosine by LC-MS; average where tested multiple times

`O=C(c1oc(-c2ccccn2)nc1C(F)(F)F)N1CCc2[nH]cnc2C1c1nc2ccccc2s1` (stereo not shown) was tested, and the AC50 was “E, E”.

Same assay, conditions: A375 cells expressing human R408W PAH; 24 hrs with compound; 13C-Tyrosine by LC-MS; average where tested multiple times; read-out: AC50

Compared with `Cc1ncc(C(=O)N2CCc3[nH]cnc3C2c2nc3ccccc3s2)o1` (stereo not shown), `Cc1nc(-c2ccccn2)c(C(=O)N2CCc3[nH]cnc3C2c2nc3ccccc3s2)o1` (stereo not shown) is lower in AC50: > 5000 nM for the first, 1000 to 5000 nM for the second.

Compared with `O=C(c1oc(C=CC2CC2)nc1C(F)(F)F)N1CCCc2[nH]cnc2C1c1nc2ccccc2s1` (stereo not shown), `O=C(Cc1nc(C(F)(F)F)cs1)N1CCc2[nH]cnc2C1c1nc2ccc(F)cc2s1` (stereo not shown) is lower in AC50: > 5000 nM for the first, 1000 to 5000 nM for the second.

`Cn1nc(C2CC2)nc1C(=O)N1CCc2[nH]cnc2C1c1nc2c(F)cccc2s1` (stereo not shown) and `COCc1cc(C(=O)N2CCc3[nH]cnc3C2c2nc3c(F)cccc3s2)[nH]n1` (stereo not shown) cannot be ordered by AC50: > 5000 nM for the first, > 5000 nM for the second.

First: Cc1cccc2sc(C3c4nc[nH]c4CCN3C(=O)c3cnn(C)c3Cl)nc12 (stereo not shown)
Second: O=C(c1ccn(-c2ccccn2)n1)N1CCc2[nH]cnc2C1c1nc2c(F)cccc2s1 (stereo not shown)
The AC50 of the first is lower: 1000 to 5000 nM for the first, > 5000 nM for the second.

`Cc1nnc(CCC(=O)N2CCc3[nH]cnc3C2c2nc3cccc(F)c3s2)s1` (stereo not shown) and `O=C(CCc1nccs1)N1CCc2[nH]cnc2C1c1nc2ccc(Cl)cc2s1` (stereo not shown) cannot be ordered by AC50: > 5000 nM for the first, > 5000 nM for the second.

`O=C(c1n[nH]c2ccccc12)N1CCc2[nH]cnc2C1c1nc2cc(F)ccc2s1` (stereo not shown) and `O=C(Cc1cnn2ccccc12)N1CCc2[nH]cnc2C1c1nc2ccccc2s1` (stereo not shown) cannot be ordered by AC50: > 5000 nM for the first, > 5000 nM for the second.

First: COc1ccn2ncc(C(=O)N3CCc4[nH]cnc4C3c3nc4ccc(Cl)cc4[nH]3)c2c1 (stereo not shown)
Second: O=C(c1ccon1)N1CCc2[nH]cnc2C1c1nc2ccc(F)cc2[nH]1 (stereo not shown)
The AC50 of the first is higher: > 5000 nM for the first, 1000 to 5000 nM for the second.
